Data reported in patent US9366676B2, “Fluorescent chemical compounds having high selectivity for double stranded DNA, and methods for their use” (LIFE TECHNOLOGIES CORPORATION, priority 2005, dated 2016).

System: calf thymus double stranded DNA and ribosomal RNA
Assay: Determination of DNA/RNA fluorescence ratios
Format: binding
Conditions: for DNA/RNA (fluorescence ratio): 65 ug/mL calf thymus dsDNA vs 65 ug/mL ribosomal RNA, 10 mM Tris, 1 mM EDTA pH 7.5, ratio of 1 = no selectivity; for ex/em: emission: emission value, second number of ex/em cell; for ex/em: excitation: excitation value, first number of ex/em cell
Description: The tested compound was dissolved as a stock solution in DMSO at a concentration of about 0.1-1.0 mg/mL. The exact concentration is not critical. Three tubes are prepared, each containing the same 1-20 uL of stock solution. The first tube contained 10 mM Tris, 1 mM EDTA (pH 7.5) buffer; the second tube contained buffer and 65 ug/mL calf thymus double stranded DNA; and the third tube contained buffer and 65 ug/mL ribosomal RNA. The tubes were incubated at room temperature for 10-15 minutes with protection from light.
In some cases, it was necessary to dilute the sample to keep the fluorescence signal on-scale. In these cases, all three samples were diluted to the same degree. The ratio of the fluorescence of the compound in the presence of DNA and RNA was determined.
The following compounds were selected as representative of the inventive class of compounds. The fluorescence values in the presence of DNA and RNA were determined as described in the previous Example. […] A ratio of 1 would indicate no selectivity. Excitation and emission values are in nm

Compound: COc1cccc(OC)c1-c1ccc2c(c1)sc(C=C1C=C(N(C)CCN(C)C)N(Cc3ccccc3)c3ccccc31)[n+]2C [Compound 18]
- DNA/RNA (fluorescence ratio): 3.5
- ex/em: emission: 533 nm
- ex/em: excitation: 505 nm

Compound: CNCCN(C)C1=CC(=Cc2sc3cc(-c4c(OC)cccc4OC)ccc3[n+]2C)c2ccccc2N1Cc1ccccc1 [Compound 22]
- DNA/RNA (fluorescence ratio): 4.7
- ex/em: emission: 534 nm
- ex/em: excitation: 505 nm

Compound: CCOC(=O)CCCOc1cccc(CN2C=C/C(=C\c3sc4cc(-c5c(OC)cccc5OC)ccc4[n+]3C)c3ccccc32)c1 [Compound 112]
- DNA/RNA (fluorescence ratio): 191
- ex/em: emission: 541 nm
- ex/em: excitation: 500 nm

Compound: COc1cccc(OC)c1-c1ccc2c(c1)sc(C=C1C=CN(Cc3ccc(C[N+](C)(C)CCCN(C)C)cc3)c3ccccc31)[n+]2C [Compound 46]
- DNA/RNA (fluorescence ratio): 11.5
- ex/em: emission: 542 nm
- ex/em: excitation: 512 nm

Compound: CCOC(=O)CCCOc1cccc(CN2C=CC(=CC=Cc3sc4cc(-c5ccccc5)ccc4[n+]3C)c3ccccc32)c1 [Compound 104]
- DNA/RNA (fluorescence ratio): 9
- ex/em: emission: 666 nm
- ex/em: excitation: 652 nm

Compound: CCCN(CCCN(C)C)C1=CC(=Cc2sc3cc(-c4c(OC)cccc4OC)ccc3[n+]2C)c2ccccc2N1C [Compound 30]
- DNA/RNA (fluorescence ratio): 5.7
- ex/em: emission: 527 nm
- ex/em: excitation: 495 nm

Compound: CCCCn1cc(N2C(N(CCC)CCCN(C)C)=CC(=Cc3sc4cc(-c5c(OC)cccc5OC)ccc4[n+]3C)c3ccccc32)nn1 [Compound 57]
- DNA/RNA (fluorescence ratio): 3.8
- ex/em: emission: 536 nm
- ex/em: excitation: 506 nm

Compound: COc1cccc(OC)c1-c1ccc2c(c1)sc(C=C1C=CN(CCc3ccccc3)c3ccccc31)[n+]2C [Compound 62]
- DNA/RNA (fluorescence ratio): 48
- ex/em: emission: 539 nm
- ex/em: excitation: 510 nm

Compound: CNCCCN(C)C1=CC(=Cc2sc3cc(-c4c(OC)cccc4OC)ccc3[n+]2C)c2ccccc2N1Cc1ccccc1 [Compound 23]
- DNA/RNA (fluorescence ratio): 3.8
- ex/em: emission: 529 nm
- ex/em: excitation: 500 nm

Compound: C[n+]1c(C=C2C=CN(Cc3ccccc3)c3ccccc32)sc2cc(-c3cc4ccccc4s3)ccc21 [Compound 95]
- DNA/RNA (fluorescence ratio): 1.9
- ex/em: emission: 591 nm
- ex/em: excitation: 550 nm

Compound: COc1cccc(OC)c1-c1ccc2c(c1)sc(C=C1C=CN(Cc3ccccc3)c3ccccc31)[n+]2C [Compound 53]
- DNA/RNA (fluorescence ratio): 60
- ex/em: emission: 540 nm
- ex/em: excitation: 510 nm

Compound: CC(=O)Nc1ccccc1-c1ccc2c(c1)sc(C=C1C=CN(Cc3ccccc3)c3ccccc31)[n+]2C [Compound 94]
- DNA/RNA (fluorescence ratio): 2.1
- ex/em: emission: 530 nm
- ex/em: excitation: 513 nm

Compound: C[n+]1c(C=CC=C2C=CN(Cc3ccccc3)c3ccccc32)sc2cc(-c3ccccc3)ccc21 [Compound 103]
- DNA/RNA (fluorescence ratio): 3.1
- ex/em: emission: 537 nm
- ex/em: excitation: 507 nm

Compound: CCCN(CCCN(C)C)C1=CC(=Cc2sc3cc(C(COC)COC)ccc3[n+]2C)c2ccccc2N1Cc1ccccc1 [Compound 101]
- DNA/RNA (fluorescence ratio): 3
- ex/em: emission: 527 nm
- ex/em: excitation: 503 nm

Compound: C#CCN1C(N(CCC)CCCN(C)C)=CC(=Cc2sc3cc(-c4c(OC)cccc4OC)ccc3[n+]2C)c2ccccc21 [Compound 34]
- DNA/RNA (fluorescence ratio): 5.8
- ex/em: emission: 532 nm
- ex/em: excitation: 503 nm

Compound: C[n+]1c(C=C2C=CN(Cc3ccccc3)c3ccccc32)sc2cc(-c3cccs3)ccc21 [Compound 96]
- DNA/RNA (fluorescence ratio): 8
- ex/em: emission: 555 nm
- ex/em: excitation: 527 nm

Compound: CCCCC1=CC(=Cc2sc3cc(-c4c(OC)cccc4OC)ccc3[n+]2C)c2ccccc2N1Cc1ccccc1 [Compound 26]
- DNA/RNA (fluorescence ratio): 36
- ex/em: emission: 541 nm
- ex/em: excitation: 505 nm
